According to patent US7709002B1, “Mutated ras peptides for generation of CD8+Cytotoxic T lymphocytes” (The United States of America as represented by the …, priority 1996, dated 2010):

Columns and labels:
[1] = tested on: CD4+ T cell line of RAS patient 43; test: Lymphoproliferation (3H-thymidine uptake) of PBMC cultures / CD4+ T cell line of RAS patient 43; assay type: cell-based, human; conditions: for Proliferation Response cpm(± SEM) / Proliferation Response SI (stimulation index): 4th IVS
[2] = tested on: CD4+ T cell line of patient 29; test: Lymphoproliferation (3H-thymidine uptake) of PBMC cultures / CD4+ T cell line of patient 29; assay type: cell-based, human
From the text: In vitro stimulation (IVS) cycles for evaluation of CD4^+ T cell responses. IVS cycles were established to: (i) amplify detection of a low proliferative response, (ii) compare “pre-immune” to “post-immune” lymphocytes over a period to time for assessment of potential peptide-specific reactivity, and (iii) derive peptide-specific CD4^+ T cell lines in culture for detailed phenotypic and functional characterization. […]
Proliferation response. […] Cells were collected with a TOMTEC MACH II 96 harvester (Wallace, Inc., Gaithersburg, Md.) and incorporated radioactivity was measured by liquid scintillation spectroscopy (1205 Betaplate flat bed LS counter; Wallace). MHC class I or II restriction was analyzed in MAb blocking experiments using anti-HLA-A, B, C (clone G46-2.6) or anti-HLA-DR, anti-HLA-DP or anti-HLA-DQ (clones TU36, HI43 or TU169, respectively) (all from Pharmingen). […] Results were expressed as the mean cpm±SEM of triplicate cultures or stimulation index, which was calculated by dividing the cpm of experimental cultures (means counts of triplicate wells) by the cpm of unstimulated control cultures (mean counts of triplicate wells).

[3] = tested on: CD4+ T cell line of RAS patient 43; test: Proliferation of patient 43 CD4+ T cell line to ras protein from tumor cell extracts captured on pan-ras MAb RAS 10 and presented by autologous BLCL; assay type: cell-based, human
[4] = target: T1, human HLA-A2 (Homo sapiens, UniProt P04439, D140Y/D185E/D98H/E176V/E277Q/G131W/G231S/I119V/I121R/I166T/I218V/L300P/L318F/N151K/N90K/P208A/P217A/Q86G/Q94H/R138H/R169H/T345S); test: HLA-A2 binding bioassay on T2 cells (flow cytometry); conditions: T2 bioassay
T1 construct: The 174CEM.T2 cell line (“T2”), (transport deletion mutant); endogenous in cells; host or cells: 174CEM.T2 (T2) human cell line

[5] = tested on: HLA-A2+ peptide-pulsed targets; test: Generation and cytotoxicity of ras4-12(V12)-specific CD8+ CTL line from a normal HLA-A2+ donor; assay type: cell-based, human; conditions: wild-type printed as wild-type ras peptide
[6] = tested on: T2 cell line as target of CD8+ CTL line of RAS patient 32; test: 51Cr-release cytotoxicity of CD8+ CTL line of RAS patient 32 against peptide-pulsed T2 targets; assay type: cell-based, human; conditions: peptide 10 μg/ml, IVS cycle 7 (FIG. 5)
Method: FIG. 5. Cytolytic activity by CD8^+ CTL line of RAS patient 32 is peptide-specific. The CD8^+ CTL line of RAS patient 32 (see FIG. 3) was assayed against the T2 cell line as a target, incubated with and without different ras peptides (10 μg/ml), as shown. In parallel, the extent of NK activity was evaluated against K562 cells. Cytotoxicity was determined by ^51Cr-release, and the results expressed at different E/T ratios following IVS cycle 7. Similar results were observed using the second, independently-derived CD8^+ CTL line as described in Table 6.
IVS cycles for evaluation of CD8^+ T cell responses from HLA-A2+Patients. Freshly-thawed PBMC (from ras patients 32 and 33), derived pre-vaccination and post-third vaccination, were enriched in T lymphocytes by passage over nylon wool columns (Robbins Scientific, Sunnyvale, Calif.) and then depleted of CD4^+ T cells by negative selection via panning on anti-CD4 MAb-coated T25 flasks (Applied Immune Sciences, Santa Clara, Calif.). For the first IVS cycle, CD8^+ enriched lymphocytes (5×10^5/well) were cultured in 24-well plates with irradiated, autologous PBMC (5×10^6/well) as APC which had been preincubated for 3 hours with the appropriate mutant ras peptide ([…]) plus human β2-microglobulin (10 μg/ml) (Calbiochem, San Diego, Calif.). […] IL-2 (10 U/ml) was added 3 days later. After an additional 7 days, viable cells (2-5×10^5/well) were re-cultured by weekly stimulation with APC pre-pulsed with peptide/β2-microglobulin, and IL-2 added one day later. After the third or fourth IVS cycle, autologous PBMC were replaced with EBV-transformed, autologous BLCL (5×10^5/well) as APC. […] CTL activity was evaluated from cultures 5 to 6 days after Ag restimulation.
Cytotoxic response. Cytotoxicity was examined by a conventional ^51Cr-release assay, as described (6). Briefly, target cells (i.e. T2, C1R-A2, BLCL, K562) were radiolabeled with 200 μCi of Na2[^51Cr]04 (Amersham) for 60 minutes at 37° C., followed by thorough washing to remove unincorporated isotope. Effectors and targets (1×10^4/well) were incubated in 96-well, U-bottomed plates (Costar) at various effector target (E/T) ratios in the absence and presence of peptide (+/−monoclonal antibody (MAb) directed against CD4, CD8 or HLA-A2 molecules (clone BB7.2 from ATCC)) for up to 6 hours. After incubation, supernatants were collected using a Supernatant Collection System (Skatron, Sterling, Va.) and radioactivity measured in a γ-counter (Packard Instruments, Downers Grove, Ill.). Cytotoxic activity was defined as percent specific release of ^51Cr and determined by the equation: [(experimentalcpm−spontaneouscpm)/maximumcpm−spontaneouscpm)]×100. Results were expressed as the mean±SEM of triplicate cultures. […]

[7] = tested on: SW480 colon carcinoma cell line (HLA-A2+, rasVal12+); test: 51Cr-release cytotoxicity of CTL against SW480 colon carcinoma cells; assay type: cell-based, human
Method: FIGS. 10A and 10B. Anti-ras Val12-specific CTL from patient 29 lyse SW480 tumor targets in the absence of exogenous peptide. FIG. 10A: Anti-ras Val12-specific CD8^+ CTL from patient 29 were assayed against the SW480 colon carcinoma cell line (HLA-A2^+, rasVal12+) in the absence of exogenous peptide, with or without IFN-γ pretreatment (250 U/ml for 24 hr) of the target cells. CD8^+ CTL reactive with the […] peptide were used as an irrelevant effector cell population. Cytotoxicity was determined by ^51Cr-release, and the results expressed at different effector/target ratios. FIG. 10B: In parallel to 10A, anti-ras or anti-MART-1-specific CTL were assayed against SW480 (±IFN-γ pretreatment) at an effector/target ratio of 10/1 in the absence or presence of exogenous peptide (5 μg/ml). […] Flow cytometric analysis of SW480 cells for expression of HLA-A2: untreated=65.4% with MFI of 29.8; IFN-γ-pretreated=99.5% with MFI of 349.6. Flow cytometric analysis of SW480 cells for expression of ICAM-1: untreated=16.0% with MFI of 30.3; IFN-γ-pretreated=98.6% with MFI of 181.9.
(§1) Cytotoxic response. Cytotoxicity was examined by a conventional ^51Cr-release assay, as described (6). […] After incubation, supernatants were collected using a Supernatant Collection System (Skatron, Sterling, Va.) and radioactivity measured in a γ-counter (Packard Instruments, Downers Grove, Ill.). Cytotoxic activity was defined as percent specific release of ^51Cr and determined by the equation: [(experimentalcpm−spontaneouscpm)/maximumcpm−spontaneouscpm)]×100. Results were expressed as the mean±SEM of triplicate cultures. […]
Studies were also carried out to determine whether such peptide-induced CD8^+ CTL could recognize a processed form of the corresponding mutant ras protein. […] In contrast to the CD4^+ analysis, which measured lymphoproliferation to soluble protein, the CD8^+ CTL analysis reflected lytic ability against SW480 cells harboring the naturally-occurring mutation in the absence of exogenously added peptide. […]

[8] = tested on: C1R-A2 targets / autologous EBV-B cells as targets of CD8+ CTL line of patient 29; test: 51Cr-release cytotoxicity of CD8+ CTL line of patient 29 against C1R-A2 or autologous EBV-B targets; assay type: cell-based, human; conditions: patient 29 lymphocytes after IVS cycle 7 (FIG. 9A)
Method: FIGS. 9A and 9B. Production of a peptide-specific CD8^+ T cell line from post-vaccinated lymphocytes of patient 29. FIG. 9A: A CD8^+ CTL line was established from post-vaccinated PBMC of patient 29 and assayed for peptide specificity against C1R-A2 targets. Cytotoxicity was determined by ^51Cr-release, and the results expressed at different effector/target ratios following IVS cycle 7. FIG. 9B: Using this CD8^+ CTL line, the requirement for HLA-A2 in peptide presentation (by autologous EBV-B cells as targets) was determined in blocking experiments using MAb (clone BB7.2; ascites=1:30 dilution) directed against that molecule (or using an isotype-matched MAb). […] CD4 and CD8 MAbs were as described for FIGS. 8A and 8b. Control lysis in the absence of peptide or in the presence of ras5-14(Gly12) was <3%.
as §1

[9] = Post-Immune culture, peptide 3 μg/ml
[10] = Post-Immune culture, peptide 10 μg/ml
[11] = Post-Immune culture, peptide 30 μg/ml
[12] = Pre-Immune culture, peptide 3 μg/ml
[13] = Pre-Immune culture, peptide 10 μg/ml
[14] = Pre-Immune culture, peptide 30 μg/ml
[15] = Pre-Immune culture, peptide 100 μg/ml

## Lys-Leu-Val-Val-Val-Gly-Ala-Gly-Gly-Val-Gly-Lys-Ser (KLVVVGAGGVGKS) [ras5-17(Gly12)]
[1]; Post-Immune culture (post-third vaccination), peptide 100 μg/ml
  Proliferation Response cpm(± SEM): 640 ± 23 cpm
[1]; [9]
  Proliferation Response SI (stimulation index): 1.0
  Proliferation Response cpm(± SEM): 694 ± 19 cpm
[1]; [10]
  Proliferation Response SI (stimulation index): 1.1
  Proliferation Response cpm(± SEM): 725 ± 27 cpm
[1]; [11]
  Proliferation Response SI (stimulation index): 1.2
  Proliferation Response cpm(± SEM): 819 ± 142 cpm
[1]; Post-Immune culture, peptide 100 μg/ml
  Proliferation Response SI (stimulation index): 1.0
[1]; [12]
  Proliferation Response SI (stimulation index): 0.9
  Proliferation Response cpm(± SEM): 824 ± 255 cpm
[1]; [13]
  Proliferation Response SI (stimulation index): 1.1
  Proliferation Response cpm(± SEM): 768 ± 257 cpm
[1]; [14]
  Proliferation Response SI (stimulation index): 1.0
  Proliferation Response cpm(± SEM): 849 ± 14 cpm
[1]; [15]
  Proliferation Response SI (stimulation index): 0.9
  Proliferation Response cpm(± SEM): 790 ± 456 cpm
[1]; T cells+BLCL+peptide 10 μg/ml, IVS cycle 15 (FIG. 2B)
  Proliferation, control culture (cpm±SEM): 7,690±383 cpm
[2]; T cells+EBV-B cells+peptide 3 μg/ml, IVS cycle 4 (FIG. 8B), without peptide 19,256±1926
  Proliferation, control culture (cpm±SEM): 18,116±1474 cpm
[2]; post-vaccination, following IVS (FIG. 8A)
  Peptide-induced proliferation of patient 29 post-vaccination PBMC (in words): no proliferative response was detectable
[3]; Table 5: peptide 10 μg/ml, RAS 10 coating +, BLCL +
  Proliferation Response cpm(± SEM): 8,844 ± 753 cpm
[3]; peptide 30 μg/ml, wells pre-coated with RAS 10, BLCL as APC
  Proliferation Response cpm(± SEM): 8,130 ± 314 cpm

## ras4-12(G12): proto-ras 9-mer sequence positions 4-12 with Gly at position 12 (YKLVVVGAG)
[4]
  Binding to HLA-A2 on T2 cells (in words): failed to bind to HLA-A2
[5]
  Generation of peptide-specific CTL line / lysis of peptide-pulsed targets (in words): No lysis was detectable

## Lys-Leu-Val-Val-Val-Gly-Ala-Val-Gly-Val [ras5-14(Val12)]
[6]
  Sensitization of T2 targets for lysis (in words): failed to stimulate lysis
[7]; peptide 5 μg/ml, E/T 10/1 (FIG. 10B), control printed as wild-type ras peptide
  Effect of exogenous peptide on anti-rasVal12 CTL-mediated lysis of SW480: enhanced
[7]; with or without IFN-γ (FIG. 10B)
  Lysis of SW480 by anti-MART CTL in presence of exogenous peptide: failed to lyse SW480 target cells
[8]
  Peptide-specific lysis of C1R-A2 targets (in words): displayed peptide-specific, cell-mediated lysis
